{
  "source": "patent US8865894B2",
  "about": "“Oxazolidin-2-one compounds and uses thereof” (Novartis AG, priority 2012, dated 2014)",
  "data": [
    {"target": "T1, human PI3Kδ (Homo sapiens, UniProt O00329)", "T1 construct": "made in house", "T1 sequence (O00329 2-1044 limits assumed)": "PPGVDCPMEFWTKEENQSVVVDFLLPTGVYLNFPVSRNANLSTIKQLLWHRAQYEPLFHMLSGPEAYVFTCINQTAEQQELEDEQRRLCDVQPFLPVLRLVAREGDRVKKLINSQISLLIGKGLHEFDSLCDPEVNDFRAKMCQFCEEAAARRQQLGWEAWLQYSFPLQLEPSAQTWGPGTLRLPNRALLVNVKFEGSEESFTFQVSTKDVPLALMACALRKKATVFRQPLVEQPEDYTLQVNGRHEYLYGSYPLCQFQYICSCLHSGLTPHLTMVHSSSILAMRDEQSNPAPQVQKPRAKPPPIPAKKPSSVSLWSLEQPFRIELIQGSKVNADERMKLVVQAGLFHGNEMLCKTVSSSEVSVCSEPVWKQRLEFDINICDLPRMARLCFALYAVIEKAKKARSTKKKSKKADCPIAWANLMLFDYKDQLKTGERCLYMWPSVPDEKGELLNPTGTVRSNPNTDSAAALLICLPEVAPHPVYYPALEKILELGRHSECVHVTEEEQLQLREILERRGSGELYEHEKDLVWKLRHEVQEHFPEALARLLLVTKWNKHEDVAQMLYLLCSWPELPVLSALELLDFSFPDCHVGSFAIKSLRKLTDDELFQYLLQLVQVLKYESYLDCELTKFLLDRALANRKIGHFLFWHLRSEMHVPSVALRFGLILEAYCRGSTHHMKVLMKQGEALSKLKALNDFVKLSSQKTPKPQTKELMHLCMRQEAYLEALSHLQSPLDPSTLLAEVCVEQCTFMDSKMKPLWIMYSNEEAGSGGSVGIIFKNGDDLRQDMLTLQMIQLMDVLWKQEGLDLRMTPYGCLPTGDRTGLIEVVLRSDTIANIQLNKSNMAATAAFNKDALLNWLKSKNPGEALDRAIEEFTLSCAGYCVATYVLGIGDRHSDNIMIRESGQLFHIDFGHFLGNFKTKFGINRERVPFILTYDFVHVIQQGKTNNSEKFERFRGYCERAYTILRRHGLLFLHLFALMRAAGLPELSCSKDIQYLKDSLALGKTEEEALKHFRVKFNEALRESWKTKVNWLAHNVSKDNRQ", "assay": "Biochemical PI3Kdelta (TR-FRET Adapta Universal Kinase Assay)", "settings": "mean of n measurements, read-out: PIK3d/ IC50", "protocol": "Test compounds were dissolved in DMSO (10 mM) and transferred into 1.4 mL flat bottom or V-shaped Matrix tubes carrying a unique 2D matrix chip by individual Novartis compound hubs. The numbers of these chips were distinctively linked to Novartis Pharma Numbers. The stock solutions were stored at −20° C. if not used immediately. For the test procedure the vials were defrosted and identified by a scanner whereby a working sheet was generated that guided the subsequent working steps.\nCompounds were either manually diluted in DMSO for individual experiments (96 wells enabling 10 cpds at 8 (single points) concentrations) as described in or prepared as described below if tested for profiling in 384-wells. This format enabled the assay of maximally 40 individual test compounds at 8 concentrations (single points) including 4 reference compounds. The dilution protocol included the production of “pre-dilution plates”, “master plates” and “assay plates”.\n96 polypropylene well plates were used as pre-dilution plates. A total of 4 pre-dilution plates were prepared including 10 test compounds each on the plate positions A1-A10, one standard compound at A11 and one DMSO control at A12. Programs have been written to run these pipetting steps on the HamiltonSTAR robots.\nIdentical “assay plates” were then prepared by pipetting 50 nL each of compound dilutions of the “master plates” into 384-well “assay plates”. The compounds were mixed with 4.5 μL of assays components plus 4.5 μL enzyme corresponding to a 1:181 dilution enabling the final concentration of 10, 3.0, 1.0, 0.3, 0.1, 0.03, 0.01 and 0.003 μM, respectively. The preparation of the “master plates” was handled by the Matrix PlateMate Plus robot and replication of “assay plates” by the HummingBird robot.\nCatalytically active human PI3Kα, PI3Kβ, PI3Kδ, and mTOR were cloned, expressed and purified as described (Maira S M, Stauffer F, Brueggen J, Furet P, Schnell C, Fritsch C, Brachmann S, Chène P, de Pover A, Schoemaker K, Fabbro D, Gabriel D, Simonen M, Murphy L, Finan P, Sellers W, García-Echeverría C (2008), Mol Cancer Ther. 7:1851-63 and Maira S M, Pecchi S, Brueggen J, Huh K, Schnell C, Fritsch C, Nagel T, Wiesmann M, Brachmann S, Dorsch M, Chène P, Schoemaker K, De Pover A, Menezes D, Fabbro D, Sellers W, García-Echeverría C, Voliva C F (2011), Mol. Cancer Ther. accepted).\nThe TR-FRET Adapta™ Universal Kinase Assay Kit was purchased from Invitrogen Corporation (Carlsbad/CA, USA) (Cat. No. PV5099). The kit contains the following reagents: Adapta Eu-anti-ADP Antibody (Europium labeled anti-ADP antibody in HEPES buffered saline, Cat. No. PV5097), Alexa Fluor® 647-labeled ADP tracer (Alexa Fluor® 647-labeled ADP tracer in HEPES buffered saline, Cat. No. PV5098), proprietary TR-FRET dilution buffer pH 7.5 (Cat. No. PV3574).\nPIK3CD substrate Phosphatidylinositol was obtained from Invitrogen (vesicules consisting of 2 mM PI in 50 mM HEPES pH7.5; Cat. No. PV5371). PIK3CG substrate Phosphatidylinositol-4,5-bisphosphate (PIP(4,5)2 was obtained from Invitrogen (PIP2:PS large unilamellar vesicules consisting of 1 mM PIP2: 19 mM PS in 50 mM HEPES pH7.5, 3 mM MgCl2, 1 mM EGTA; Cat. No. PV5100).\nTime-Resolved Fluorescence Resonance Energy Transfer (TR-FRET) is a technology based on energy transfer between two adjacent dyes, from an excited electron in one dye (the donor) to an electron of an adjacent dye (the acceptor) through resonance, then released as a photon. This energy transfer is detected by an increase in the fluorescence emission of the acceptor, and a decrease in the fluorescence emission of the donor. TR-FRET assays for protein kinases use a long-lifetime lanthanide Terbium or Europium chelates as the donor species which overcome interference from compound autofluorescence or light scatter from precipitated compounds, by introducing a delay after excitation by a flashlamp excitation source. Results are often expressed as a ratio of the intensities of the acceptor and donor fluorophores.", "units": {"IC50": "nM"}, "values": [
      {"smiles": "[2H]C1([2H])OC([2H])([2H])C([2H])([2H])N(c2nc(-c3cnc(N)nc3C(F)(F)F)cc(N3C(=O)OC[C@@H]3C)n2)C1([2H])[2H]", "note": "[Example 17, (S)-3-(2′-amino-2-D8-morpholino-4′-(trifluoromethyl)-[4,5′-bipyrimidin]-6-yl)-4-methyloxazolidin-2-one]", "IC50": 8},
      {"smiles": "C[C@H]1OC(=O)N(c2cc(-c3cnc(N)nc3C(F)(F)F)nc(N3CCOCC3)n2)[C@H]1CO", "note": "[Example 18, (4S,5R)-3-(2′-Amino-2-morpholin-4-yl-4′-trifluoromethyl-[4,5′]bipyrimidinyl-6-yl)-4-hydroxymethyl-5-methyl-oxazolidin-2-one]", "IC50": 8},
      {"smiles": "C[C@H]1[C@@H](CO)OC(=O)N1c1cc(-c2cnc(N)nc2C(F)(F)F)nc(N2CCOCC2)n1", "note": "[Example 19, (4S,5S)-3-(2′-Amino-2-morpholin-4-yl-4′-trifluoromethyl-[4,5′]bipyrimidinyl-6-yl)-5-hydroxymethyl-4-methyl-oxazolidin-2-one]", "IC50": 9},
      {"smiles": "Nc1ncc(-c2cc(N3C[C@H](CO)OC3=O)nc(N3CCOCC3)n2)c(C(F)(F)F)n1", "note": "[Example 20, (R)-3-(2′-Amino-2-morpholin-4-yl-4′-trifluoromethyl-[4,5′]bipyrimidinyl-6-yl)-5-hydroxymethyl-oxazolidin-2-one]", "IC50": 23},
      {"smiles": "Nc1ncc(-c2cc(N3C(=O)O[C@H]4COC[C@H]43)nc(N3CCOCC3)n2)c(C(F)(F)F)n1", "note": "[Example 21, (3aR,6aR)-3-(2′-amino-2-morpholino-4′-(trifluoromethyl)-[4,5′-bipyrimidin]-6-yl)-tetrahydrofuro[3,4-d]oxazol-2(3H)-one]", "IC50": 17},
      {"smiles": "C[C@H]1[C@@H](CCO)OC(=O)N1c1cc(-c2cnc(N)nc2C(F)(F)F)nc(N2CCOCC2)n1", "note": "[Example 23, (4S,5R)-3-(2′-Amino-2-morpholino-4′-(trifluoromethyl)-[4,5′-bipyrimidin]-6-yl)-5-(2-hydroxyethyl)-4-methyloxazolidin-2-one]", "IC50": 9}
    ]}
  ]
}
